For series [1], the target named is Cytochrome P450 3A4 (Homo sapiens, UniProt P08684). The settings on record: bti-tn-5b1-4. Also: in other assays of this panel Not Active means under 50% inhibition at 10 µM.
In series [2] the target is Epidermal growth factor receptor (Homo sapiens, UniProt P00533). Kind of series: DRUGMATRIX: Protein Tyrosine Kinase, EGF Receptor enzyme inhibition (substrate: Poly(Glu:Tyr)). It counts as cell-based, Insect cells. The note with it: Not Active = under 50% inhibition at 10 µM.
Series [3] concerns the target Sigma non-opioid intracellular receptor 1 (Homo sapiens, UniProt Q99720). Kind of series: DRUGMATRIX: Sigma1 radioligand binding (ligand: [3H] Haloperidol). It counts as cell membranes, Jurkat, Membrane. The settings on record: jurkat; Not Active = under 50% inhibition at 10 µM.
Series [4] deals with Mu-type opioid receptor (Homo sapiens, UniProt P35372). As to the kind of experiment: DRUGMATRIX: Opiate mu (OP3, MOP) radioligand binding (ligand: [3H] Diprenorphine). The format is cell membranes, CHO-K1, Membrane. The settings on record: Not Active = under 50% inhibition at 10 µM.
Sequence of Mu-type opioid receptor (P35372 whole entry): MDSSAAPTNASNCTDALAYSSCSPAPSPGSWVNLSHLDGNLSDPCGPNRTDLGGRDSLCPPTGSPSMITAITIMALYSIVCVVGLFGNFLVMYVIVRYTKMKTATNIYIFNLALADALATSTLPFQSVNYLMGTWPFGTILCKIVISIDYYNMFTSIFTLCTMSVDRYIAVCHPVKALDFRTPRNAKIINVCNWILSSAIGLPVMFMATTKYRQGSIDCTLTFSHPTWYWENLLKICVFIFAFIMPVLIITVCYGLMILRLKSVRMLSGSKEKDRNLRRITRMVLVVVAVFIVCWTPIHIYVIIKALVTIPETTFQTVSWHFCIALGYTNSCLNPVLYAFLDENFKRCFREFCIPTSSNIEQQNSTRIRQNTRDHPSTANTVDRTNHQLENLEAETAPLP
Series [5] has as its target Vascular endothelial growth factor receptor 1 (Homo sapiens, UniProt P17948). It counts as cell-based. The settings on record: huvec. Also: in other assays of this panel Not Active means under 50% inhibition at 10 µM.
Series [6] in a line: DRUGMATRIX: Serotonin (5-Hydroxytryptamine) 5-HT3 radioligand binding (ligand: [3H] GR-65630). The settings on record: hek293; Not Active = under 50% inhibition at 10 µM. It counts as cell membranes, Membrane.

Where a SMILES comes first, the peptide text is derived from it. Bridges are numbered along the chain shown (N, C = ends). [ ]: non-standard residue; d: D form. The star is where a group is joined. Threoninol(2S,3R) = C[C@@H](O)[C@H](CO)N*

Sequence of Cytochrome P450 3A4 (P08684 whole entry): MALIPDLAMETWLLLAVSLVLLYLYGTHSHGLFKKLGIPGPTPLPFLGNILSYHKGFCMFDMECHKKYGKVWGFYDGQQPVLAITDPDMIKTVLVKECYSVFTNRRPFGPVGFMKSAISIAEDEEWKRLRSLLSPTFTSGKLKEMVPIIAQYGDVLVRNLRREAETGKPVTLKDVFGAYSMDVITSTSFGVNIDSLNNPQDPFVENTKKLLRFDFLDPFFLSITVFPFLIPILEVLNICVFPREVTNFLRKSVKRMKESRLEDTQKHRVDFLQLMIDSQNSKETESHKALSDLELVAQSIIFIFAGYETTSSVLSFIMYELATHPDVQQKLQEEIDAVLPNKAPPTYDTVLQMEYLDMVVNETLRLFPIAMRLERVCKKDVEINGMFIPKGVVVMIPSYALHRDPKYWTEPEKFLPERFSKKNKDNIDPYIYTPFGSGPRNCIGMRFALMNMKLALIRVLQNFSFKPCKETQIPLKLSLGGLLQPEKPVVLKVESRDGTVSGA
Sequence of Vascular endothelial growth factor receptor 1 (P17948 whole entry): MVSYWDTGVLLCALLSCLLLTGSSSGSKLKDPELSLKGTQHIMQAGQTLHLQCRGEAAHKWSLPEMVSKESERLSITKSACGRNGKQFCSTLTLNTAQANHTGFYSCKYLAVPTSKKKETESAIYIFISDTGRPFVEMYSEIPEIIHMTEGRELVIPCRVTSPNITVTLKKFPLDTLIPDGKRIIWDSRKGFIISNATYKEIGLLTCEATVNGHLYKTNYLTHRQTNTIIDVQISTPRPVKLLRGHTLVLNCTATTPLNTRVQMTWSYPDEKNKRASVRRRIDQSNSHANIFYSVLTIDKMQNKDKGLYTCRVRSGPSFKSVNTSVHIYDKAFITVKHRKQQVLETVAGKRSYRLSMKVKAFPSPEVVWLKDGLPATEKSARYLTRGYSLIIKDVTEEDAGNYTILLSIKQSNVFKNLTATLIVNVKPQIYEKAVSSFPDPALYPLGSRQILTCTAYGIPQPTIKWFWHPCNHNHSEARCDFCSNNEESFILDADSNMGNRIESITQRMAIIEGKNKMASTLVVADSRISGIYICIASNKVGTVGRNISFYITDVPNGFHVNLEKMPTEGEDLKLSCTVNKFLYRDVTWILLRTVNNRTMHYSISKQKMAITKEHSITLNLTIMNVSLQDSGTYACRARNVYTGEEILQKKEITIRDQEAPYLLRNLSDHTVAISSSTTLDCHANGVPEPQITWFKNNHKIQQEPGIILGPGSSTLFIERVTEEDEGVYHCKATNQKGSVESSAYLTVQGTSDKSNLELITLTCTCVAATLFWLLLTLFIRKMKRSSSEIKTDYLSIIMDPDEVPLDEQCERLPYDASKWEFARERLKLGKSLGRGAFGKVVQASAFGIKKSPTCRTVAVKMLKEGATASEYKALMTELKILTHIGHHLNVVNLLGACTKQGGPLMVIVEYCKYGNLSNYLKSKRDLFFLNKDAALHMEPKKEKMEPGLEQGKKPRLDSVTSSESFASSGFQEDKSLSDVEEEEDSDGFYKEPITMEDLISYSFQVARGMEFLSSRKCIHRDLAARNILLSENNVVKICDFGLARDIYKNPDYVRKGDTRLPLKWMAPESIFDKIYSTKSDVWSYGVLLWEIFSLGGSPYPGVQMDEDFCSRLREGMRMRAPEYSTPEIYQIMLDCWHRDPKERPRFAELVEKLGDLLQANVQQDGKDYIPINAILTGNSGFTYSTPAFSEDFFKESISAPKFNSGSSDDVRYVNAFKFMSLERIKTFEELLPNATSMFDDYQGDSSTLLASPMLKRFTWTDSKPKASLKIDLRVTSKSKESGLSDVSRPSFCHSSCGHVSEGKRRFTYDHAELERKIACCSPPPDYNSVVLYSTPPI
Sequence of Sigma non-opioid intracellular receptor 1 (Q99720 whole entry): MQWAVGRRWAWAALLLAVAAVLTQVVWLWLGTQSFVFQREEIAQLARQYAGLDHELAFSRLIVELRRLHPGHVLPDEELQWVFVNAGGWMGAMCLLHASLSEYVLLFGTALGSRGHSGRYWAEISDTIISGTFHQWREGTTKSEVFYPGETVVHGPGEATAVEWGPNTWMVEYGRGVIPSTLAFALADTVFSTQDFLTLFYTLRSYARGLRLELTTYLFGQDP

Turning to `COc1ccccc1C(=O)N1CCC(Cc2ccccc2)CC1`, the IC50 result in series [1], in series [2] (insect cells), in series [3], in series [4] (cho-k1), in series [5] and in series [6] was “Not Active” in each case. Moreover, the Ki entry in series [1] and in series [6] was “Not Active” throughout.

For `Cc1ccccc1C(=O)N1CCC(Cc2ccccc2)CC1`, the IC50 result in series [1], in series [2] (insect cells), in series [3], in series [4] (cho-k1), in series [5] and in series [6] was “Not Active” each time. Moreover, the Ki entry in series [1] and in series [6] was “Not Active” each time.

As to `O=C1CC[C@H](N2C(=O)c3ccccc3C2=O)C(=O)N1`, the IC50 entry in series [1], in series [2] (insect cells), in series [3], in series [4] (cho-k1), in series [5] and in series [6] was “Not Active” throughout. In addition, the Ki result in series [1] and in series [6] was “Not Active” throughout.

For the compound `N=C(Nc1ccccc1)Nc1ccccc1`, the IC50 entry in series [1], in series [2] (insect cells), in series [4] (cho-k1), in series [5] and in series [6] was “Not Active” each time. In addition, the Ki entry in series [1] and in series [6] was “Not Active” in each case.

Turning to `C[C@@H](O)[C@H](CO)NC(=O)[C@@H]1CSSC[C@H](NC(=O)[C@H](N)Cc2ccccc2)C(=O)N[C@@H](Cc2ccccc2)C(=O)N[C@H](Cc2c[nH]c3ccccc23)C(=O)N[C@@H](CCCCN)C(=O)N[C@@H]([C@@H](C)O)C(=O)N1` (H-[dF]CF[dW]KTC-{Threoninol(2S,3R)}; disulfide 2-7), the IC50 entry in series [1], in series [2] (insect cells), in series [3], in series [4] (cho-k1), in series [5] and in series [6] was “Not Active” in each case. The Ki entry in series [1] and in series [6] was “Not Active” throughout.

Take `S=C=Nc1cccc2ccccc12` [1-NAPHTHYLISOTHIOCYANATE]: the IC50 entry in series [1], in series [2] (insect cells), in series [3], in series [5] and in series [6] was “Not Active” throughout. Further, the Ki entry in series [1] and in series [6] was “Not Active” in each case.

On to `C[C@](O)(CS(=O)(=O)c1ccc(F)cc1)C(=O)Nc1ccc(C#N)c(C(F)(F)F)c1` [(R)-BICALUTAMIDE], for which the IC50 result in series [1], in series [2] (insect cells), in series [3], in series [4] (cho-k1), in series [5] and in series [6] was “Not Active” in each case. The Ki entry in series [1] and in series [6] was “Not Active” throughout.

With `CCCC(=O)Nc1ccc(OCC(O)CNC(C)C)c(C(C)=O)c1` (stereo not given) [ACEBUTOLOL], the IC50 entry in series [1], in series [2] (insect cells), in series [3], in series [4] (cho-k1), in series [5] and in series [6] was “Not Active” throughout. Also, the Ki result in series [1] and in series [6] was “Not Active” in each case.

As to `O=C1CC2(CCCC2)CC(=O)N1CCCCN1CCN(c2ncccn2)CC1` [BUSPIRONE], the IC50 result in series [2] (insect cells), in series [4] (cho-k1), in series [5] and in series [6] was “Not Active” each time. Further, the inhibition constant Ki entry in series [6] is “Not Active”.

As to `C[C@@]12C(=O)OC(=O)[C@]1(C)[C@H]1CC[C@@H]2O1` [CANTHARIDIN], the IC50 result in series [1], in series [2] (insect cells), in series [3], in series [5] and in series [6] was “Not Active” each time. The Ki result in series [1] and in series [6] was “Not Active” throughout.

Consider `O=NN(CCCl)C(=O)NCCCl` [CARMUSTINE], for which the IC50 entry in series [2] (insect cells), in series [3], in series [4] (cho-k1), in series [5] and in series [6] was “Not Active” throughout. The Ki entry in series [6] was “Not Active”.

For the compound `CC1=C(C(=O)O)N2C(=O)[C@@H](NC(=O)[C@H](N)c3ccccc3)[C@H]2SC1` [CEPHALEXIN ANHYDROUS], the IC50 result in series [2] (insect cells), in series [3], in series [4] (cho-k1), in series [5] and in series [6] was “Not Active” in each case. Besides, the Ki entry in series [6] was “Not Active”.

`O=C(N[C@H](CO)[C@H](O)c1ccc([N+](=O)[O-])cc1)C(Cl)Cl` [CHLORAMPHENICOL]: the IC50 result in series [2] (insect cells), in series [3], in series [4] (cho-k1), in series [5] and in series [6] was “Not Active” in each case. The Ki result in series [6] is reported as “Not Active”.

For the compound `CCOC(=O)C(C)(C)Oc1ccc(Cl)cc1` [CLOFIBRATE], the IC50 entry in series [2] (insect cells), in series [3], in series [4] (cho-k1), in series [5] and in series [6] was “Not Active” in each case. In series [6], the Ki result is “Not Active”.

With `C[C@@H]1C[C@@H]([C@H](O)CC2CC(=O)NC(=O)C2)C(=O)[C@@H](C)C1` [CYCLOHEXIMIDE], the IC50 result in series [2] (insect cells), in series [3], in series [5] and in series [6] was “Not Active” in each case. Also, in series [6], the Ki entry was “Not Active”.

Take `C/C=C/C[C@@H](C)[C@@H](O)[C@H]1C(=O)N[C@@H](CC)C(=O)N(C)CC(=O)N(C)[C@@H](CC(C)C)C(=O)N[C@@H](C(C)C)C(=O)N(C)[C@@H](CC(C)C)C(=O)N[C@@H](C)C(=O)N[C@H](C)C(=O)N(C)[C@@H](CC(C)C)C(=O)N(C)[C@@H](CC(C)C)C(=O)N(C)[C@@H](C(C)C)C(=O)N1C` [CYCLOSPORINE]: the IC50 entry in series [2] (insect cells), in series [3], in series [4] (cho-k1), in series [5] and in series [6] was “Not Active” throughout. The Ki result in series [6] is listed as “Not Active”.

On to `COP(=O)(OC)OC=C(Cl)Cl` [DICHLORVOS], for which the concentration for half-maximal inhibition (IC50) result in series [1], in series [2] (insect cells), in series [3], in series [5] and in series [6] was “Not Active” in each case. Further, the Ki entry in series [1] and in series [6] was “Not Active” in each case.

Take `CN(C)c1ccc(C(=C2C=CC(=[N+](C)C)C=C2)c2ccc(N(C)C)cc2)cc1.[Cl-]` [GENTIAN VIOLET]: the IC50 in series [2] (read-out: IC50) is 473 nM; in series [3], “Not Active”; in series [4] (read-out: IC50), 2150 nM; in series [5] it was “Not Active”; in series [6], “Not Active”. The Ki was 871 nM in series [4] (read-out: Ki) and “Not Active” in series [6].

`NC(=O)NO` [HYDROXYUREA]: the IC50 result in series [2] (insect cells), in series [3], in series [4] (cho-k1), in series [5] and in series [6] was “Not Active” throughout. Further, the Ki result in series [6] is on record as “Not Active”.

As to `CC(C)(C(=O)c1cccnc1)c1cccnc1` [METYRAPONE], the IC50 result in series [2] (insect cells), in series [3], in series [4] (cho-k1), in series [5] and in series [6] was “Not Active” throughout. Also, the Ki entry in series [6] is reported as “Not Active”.

As to `COc1ccc2cc([C@H](C)C(=O)O)ccc2c1` [NAPROXEN], the IC50 result in series [2] (insect cells), in series [3], in series [4] (cho-k1), in series [5] and in series [6] was “Not Active” throughout. Besides, the Ki entry in series [6] is “Not Active”.

For the compound `COC(=O)C1=C(C)NC(C)=C(C(=O)OCC(C)C)C1c1ccccc1[N+](=O)[O-]` (stereo not given) [NISOLDIPINE], the IC50 result in series [2] (insect cells), in series [3], in series [4] (cho-k1), in series [5] and in series [6] was “Not Active” throughout. The Ki result in series [6] is “Not Active”.

Take `CCn1cc(C(=O)O)c(=O)c2cc(F)c(N3CCN(C)CC3)cc21` [PEFLOXACIN]: the IC50 entry in series [2] (insect cells), in series [3], in series [4] (cho-k1), in series [5] and in series [6] was “Not Active” each time. Also, the Ki entry in series [6] was “Not Active”.

As for `O=C(C1CCCCC1)N1CC(=O)N2CCc3ccccc3C2C1` (stereo not given) [PRAZIQUANTEL], the IC50 entry in series [1], in series [2] (insect cells), in series [4] (cho-k1), in series [5] and in series [6] was “Not Active” each time. In addition, the Ki result in series [1] and in series [6] was “Not Active” each time.

For `CCC1=C[C@@H]2CN(C1)Cc1c([nH]c3ccccc13)[C@@](C(=O)OC)(c1cc3c(cc1OC)N(C)[C@H]1[C@@](O)(C(=O)OC)[C@H](OC(C)=O)[C@]4(CC)C=CCN5CC[C@]31[C@@H]54)C2` [VINORELBINE], the IC50 result in series [2] (insect cells), in series [3], in series [4] (cho-k1), in series [5] and in series [6] was “Not Active” each time. Besides, in series [6], the Ki entry is “Not Active”.

On to CADMIUM DICHLORIDE, for which the IC50 result in series [1] is “Not Active”; in series [2] (insect cells, read-out: IC50), 486 nM; in series [3], “Not Active”; in series [5] it was “Not Active”; in series [6] it was “Not Active”. Besides, the Ki entry in series [1], in series [3], in series [5] and in series [6] was “Not Active” in each case.
